The values below come from US5856506A, “Phosphatase inhibitors and methods of use thereof” (University of Pittsburgh, priority 1997, dated 1999).

What all share (type): biochemical
The subject of experiment [1] is PP1. In words: Phosphatase activity by [32P] release from phosphorylase-a or phosphohistone (Honkanen method). To be noted: 100 μM inhibitor; none = 100. The protocol: (§1) It has been found in accordance with the present invention that compounds of formula I are capable of inhibiting serine/threonine protein phosphatases. Inhibition of serine/threonine protein phosphatases is defined herein as inhibition of the activity of one or more of PP1, PP2A or PP3 at a concentration of 100 μM or less of the inhibitor compound. In a preferred embodiment, the activity of the phosphatase is inhibited by at least 10%. In more preferred embodiments, the activity of the phophatase is inhibited by at least 25%, or even more preferably, by at least 50%. Inhibition of PP1, PP2A or PP3 can be assessed by methods known to one of ordinary skill in the art. Suitable assays are described, for example by Honkanen et al. (1994) Toxicon 32:339 and Honkanen et al. (1990) J. Biol. Chem. 265: 19401, the disclosures of which are incorporated herein by reference. Briefly, phosphatase activity is determined by quantifying the [^32 p] released from a ^32 p-labeled substrate such as phosphohistone or phosphorylase-a. Decreased [^32 p] release in the presence of the compounds of the present invention relative to control samples provides a measure of the ability of the compounds of the invention to inhibit PP1, PP2A or PP3.
(§2) Phosphatase activity and the inhibitory activity of the compounds of Table 1 were determined by the method of Honkanen et al. (1994) Toxicon 32:339. Briefly, phosphatase activity against phosphorylase-a or phosphohistone was 25 determined by the quantification of liberated [^32 p]. Assays, 80 μl total volume, containing 50 mM Tris-HCl, pH 7.4, 0.5 mM DTT, 1 mM EDTA (assay buffer) and [^32 p]phosphoprotein (1-2 μM PO4), were conducted as described previously (Honkanen et al., 1991 Mol. Pharmac. 40:577). Dephosphorylation reactions were routinely conducted for 5-10 min. using phosphorylase-a as a substrate and for 10-20 min. using phosphohistone. In all assays the dephosphorylation of substrate was kept to less than 10% of the total phosphorylated substrate available, and the reactions were adjusted to ensure that enzyme activity was linear with respect to enzyme concentration and time. [^32 p]Phosphate liberated by the enzymes was extracted as a phosphomolybdate complex and measured according to the methods of Killilea et al. (1978) Arch. Biochem. Biophys. 191:638. Inhibition of protein phosphatase activity by inhibitors was determined by adding the 100 μM of inhibitors to the enzyme mixture 5-10 min. prior to initiating the reaction with the addition of substrate.

Experiment [2] addresses PP2A (Bos taurus, UniProt P67774). The experiment is described as above. To be noted: 100 μM inhibitor; none = 100; read-out: PP2A, percent inhibition relative to control (100%). As to the method: as §1, §2
Experiment [3] deals with PP3. The experiment is described as above. The settings on record: 100 μM inhibitor; none = 100. As to the method: as §1, §2
The test system of experiment [4] is Recombinant human CDC25B. In words: CDC25B phosphatase assay, GST fusion protein, fluorescein diphosphate. To be noted: none = 100; 1 hour preincubation; concentration not given (0.3-100 μM tested). As to the method:
The compounds of the present invention are also capable of inhibiting dual specificity phosphatases, for example CDC25A and CDC25B. Phosphatases CDC25A and CDC25B are disclosed in U.S. Pat. No. 5,441,880. Inhibition of dual specificity phosphatases is defined herein as inhibition of the activity of CDC25A and/or CDC25B at a concentration of 100 μM of the inhibitor compound. In a preferred embodiment, the activity of the phosphatase is inhibited by at least 10%. In more preferred embodiments, the activity of the phophatase is inhibited by at least 25%, or even more preferably, by at least 50%. The ability of the compounds of the present invention to inhibit the phosphatases can be determined by measuring the effect of the compounds on the ability of CDC25 or CDC25B to dephosphorylate a substrate. Appropriate methods are known to those of ordinary skill in the art, and include, for example, calorimetric assays. A suitable assay is described in U.S. Pat. No. 5,441,880, the disclosure of which is incorporated herein by reference. […] The assay may be performed as a rapid calorimetric microtitration plate assay.
Compounds 1a-1r were assessed for ability to inhibit CDC25A and CDC25B activity. Recombinant human CDC25A and CDC25B were obtained as a glutahione-S-transferase (GST) fusion protein using human cDNA and standard molecular biological methods. The cDNA constructs are in a plasmid that is expressed in E. coli under the control of isopropyl-beta-D-[…] (IPTG). The bacterial pellet was disrupted by sonication, and centrifuged at 10,000×g. Using glutathione-agarose beads, the fusion protein was purified from postmicrosomal supernant fraction as described by Baratte et al. (1992) Anticancer Res. 12: 873-880. Phosphatase activity was assayed with a spectrofluorimeter under the following conditions: 1 unit (1 U=amount of protein that induces 33 fluoresence units/minute of product) of fusion protein in a final incubation mixture (150 μL) comprised of 25 mM Tris (pH=8.0), 5 mM EDTA, 33 μg/ml BSA, and 20 μM fluorescein diphosphate in 96-well microtiter plates. Plates were preincubated for 1 hour with 0 (control), 0.3, 1, 3, 10, 30, 100 μM compounds at room temperature. After the 1 hour incubation at room temperature, fluorescence of the fluorescein product (Ex. 485 nm; Em. 530 nm) were measured with a Biosystems Cytofluor II (Framingham, Mass.).

PP2A, sequence (P67774 whole entry): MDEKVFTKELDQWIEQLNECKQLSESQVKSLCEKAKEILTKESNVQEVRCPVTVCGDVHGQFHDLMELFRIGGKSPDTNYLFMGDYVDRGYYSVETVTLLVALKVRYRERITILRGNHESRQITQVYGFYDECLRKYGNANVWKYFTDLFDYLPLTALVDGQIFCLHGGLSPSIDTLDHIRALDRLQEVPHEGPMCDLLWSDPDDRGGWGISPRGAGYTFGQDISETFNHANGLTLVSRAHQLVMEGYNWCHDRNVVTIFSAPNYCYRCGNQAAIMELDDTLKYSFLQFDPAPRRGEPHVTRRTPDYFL

On to `CCCCCCCCCC(=O)NC(CCC(=O)N(C)CCNC(=O)c1nc(-c2ccccc2)oc1C)C(=O)O` (stereo not shown) [Compound 1a], for which the “PP1 remaining activity, percent of control” value in experiment [1] was 121%. The PP2A remaining activity, % of control at 100 µM in experiment [2] came to 100%. Also, the “PP3 remaining activity, percent of control” value in experiment [3] was 76%. For the same molecule, the “CDC25B activity remaining, percent of control” value in experiment [4] is given as 106%.
On the same counts, the results for `CCCCCCN(CCNC(=O)c1nc(-c2ccccc2)oc1C)C(=O)CCC(NC(=O)C=Cc1ccccc1)C(=O)O` (stereo not shown) [Compound 1n] are 40%, 87%, 26% and 66%.
Take `Cc1oc(-c2ccccc2)nc1C(=O)NCCN(Cc1ccccc1)C(=O)CCC(NC(=O)CCc1ccccc1)C(=O)O` (stereo not shown) [Compound 1i]: the PP2A remaining activity, % of control at 100 µM in experiment [2] amounted to 80%. For the same molecule, the “PP3 remaining activity, percent of control” value in experiment [3] was found to be 14%. Also, the “CDC25B activity remaining, percent of control” value in experiment [4] came to 63%.
Consider `O=C(C=Cc1ccccc1)NC(CCC(=O)N(CCNC(=O)c1nc(-c2ccccc2)oc1-c1ccccc1)Cc1ccccc1)C(=O)O` (stereo not shown) [Compound 1r], for which the “PP1 remaining activity, percent of control” value in experiment [1] came to 53%. For the same molecule, the PP2A remaining activity, % of control at 100 µM in experiment [2] came to 68%. In experiment [3], the “PP3 remaining activity, percent of control” value was 15%. In experiment [4], the “CDC25B activity remaining, percent of control” value came out at 56%.
On the same counts, the results for `Cc1oc(-c2ccccc2)nc1C(=O)NCCN(Cc1ccccc1)C(=O)CCC(NC(=O)C=Cc1ccccc1)C(=O)O` (stereo not shown) [Compound 1o] are 64%, 88%, 13% and 66%.
On the same counts, the results for `CCCCCCN(CCNC(=O)c1nc(-c2ccccc2)oc1-c1ccccc1)C(=O)CCC(NC(=O)CCc1ccccc1)C(=O)O` (stereo not shown) [Compound 1k] are 48%, 67%, 24% and 76%.
On the same counts, the results for `CCCCCCCCCC(=O)NC(CCC(=O)N(CCCCCC)CCNC(=O)c1nc(-c2ccccc2)oc1C)C(=O)O` (stereo not shown) [Compound 1b] are 59%, 135%, 32% and 44%.
On to `CCCCCCCCCC(=O)NC(CCC(=O)N(CCCCCC)CCNC(=O)c1nc(-c2ccccc2)oc1-c1ccccc1)C(=O)O` (stereo not shown) [Compound 1e], for which, in experiment [1], the “PP1 remaining activity, percent of control” value came out at 153%. Moreover, in experiment [2], the PP2A remaining activity, % of control at 100 µM stood at 152%. In experiment [3], the “PP3 remaining activity, percent of control” value was 71%. Moreover, the “CDC25B activity remaining, percent of control” value in experiment [4] came out at 17%.
On the same counts, the results for `CN(CCNC(=O)c1nc(-c2ccccc2)oc1-c1ccccc1)C(=O)CCC(NC(=O)CCc1ccccc1)C(=O)O` (stereo not shown) [Compound 1j] are 80%, 72%, 38% and 90%.
For the molecule `O=C(CCc1ccccc1)NC(CCC(=O)N(CCNC(=O)c1nc(-c2ccccc2)oc1-c1ccccc1)Cc1ccccc1)C(=O)O` (stereo not shown) [Compound 1l], the “PP1 remaining activity, percent of control” value in experiment [1] amounted to 59%. Also, the PP2A remaining activity, % of control at 100 µM in experiment [2] came out at 69%. Further, in experiment [3], the “PP3 remaining activity, percent of control” value is 22%. In addition, the “CDC25B activity remaining, percent of control” value in experiment [4] is reported as 69%.
As for `Cc1oc(-c2ccccc2)nc1C(=O)NCCN(C)C(=O)CCC(NC(=O)C=Cc1ccccc1)C(=O)O` (stereo not shown) [Compound 1m], the “PP1 remaining activity, percent of control” value in experiment [1] stood at 111%. In experiment [2], the PP2A remaining activity, % of control at 100 µM amounted to 108%. Moreover, the “PP3 remaining activity, percent of control” value in experiment [3] came to 60%. Besides, in experiment [4], the “CDC25B activity remaining, percent of control” value was 45%.
On the same counts, the results for `CCCCCCN(CCNC(=O)c1nc(-c2ccccc2)oc1-c1ccccc1)C(=O)CCC(NC(=O)C=Cc1ccccc1)C(=O)O` (stereo not shown) [Compound 1q] are 85%, 60%, 28% and 62%.
`CN(CCNC(=O)c1nc(-c2ccccc2)oc1-c1ccccc1)C(=O)CCC(NC(=O)C=Cc1ccccc1)C(=O)O` (stereo not shown) [Compound 1p]: in experiment [1], the “PP1 remaining activity, percent of control” value was 65%. Moreover, the PP2A remaining activity, % of control at 100 µM in experiment [2] worked out at 99%. Further, in experiment [3], the “PP3 remaining activity, percent of control” value stood at 68%. Moreover, the “CDC25B activity remaining, percent of control” value in experiment [4] is given as 87%.
On the same counts, the results for `Cc1oc(-c2ccccc2)nc1C(=O)NCCN(C)C(=O)CCC(NC(=O)CCc1ccccc1)C(=O)O` (stereo not shown) [Compound 1g] are 53%, 109%, 21% and 61%.
As for `CCCCCCCCCC(=O)NC(CCC(=O)N(CCNC(=O)c1nc(-c2ccccc2)oc1C)Cc1ccccc1)C(=O)O` (stereo not shown) [Compound 1c], in experiment [2], the PP2A remaining activity, % of control at 100 µM stood at 129%. Also, in experiment [3], the “PP3 remaining activity, percent of control” value was 28%. The “CDC25B activity remaining, percent of control” value in experiment [4] is 42%.
